Test results from EPA's ToxValDB 9.5.
In brackets after ≈: the same amount, converted by molar mass.

Tests used:
Canidae = conditions: oral, Dog Other
Capra sp. = conditions: subchronic; duration: 90 days; oral; feed; growth
Gallus gallus = conditions: oral, diet; for LEL: duration: 35 days
Oncorhynchus mykiss = conditions: for LOAEL / NOEC: chronic/long-term; for LOAEL: oral, feed; for LC50: acute, duration: 96 hours, mortality
Ovis sp. = conditions: oral
Sus scrofa = conditions: repeat dose other; Not specified; organ weight
Bovidae = conditions: oral, diet, no effects
Equus caballus = conditions: acute; oral; gavage; mortality
Lolium perenne = conditions: acute; growth
Meleagris sp. = conditions: no effects
Tagia sp. = conditions: for NOEC: chronic/long-term, duration: 56 days
Danio rerio = conditions: acute; duration: 96 hours; mortality
Bibionidae = conditions: chronic/long-term, duration: 28 days
Colinus virginianus = conditions: for LD50: acute, oral, mortality
Cyprinodon variegatus = conditions: acute, duration: 96 hours
Pimephales promelas = conditions: chronic/long-term; duration: 33 days; growth
Rattus norvegicus = conditions: for LD50: acute, mortality
Daphnia magna = conditions: chronic/long-term, duration: 21 days
Lepomis macrochirus = conditions: acute; duration: 96 hours
Macromiidae = conditions: acute; duration: 72 hours; growth
Pontoscolex corethrurus = conditions: reproductive; no effects
Coturnix coturnix = conditions: chronic; duration: 105 days; oral; diet; mortality
Typhlodromus pyri = test: LR50; higher = less toxic; conditions: not reported; mortality
Apis mellifera = conditions: acute; oral; unspecified; mortality

For `Cc1cc2c(C(C)C)c(O)c(O)c(C=O)c2c(O)c1-c1c(C)cc2c(C(C)C)c(O)c(O)c(C=O)c2c1O` [Gossypol], which LEL (Canidae; repeat dose other, diet, mortality) is on record?
The LEL was 5 mg/kg-day.

And the LEL (Capra sp.)?
The LEL was ≥ 15 mg/kg-day.

And the NOAEL (Gallus gallus; short-term, duration: 20 days, histopathology: nonneoplastic)?
Its NOAEL is 20 mg/kg-day.

And the LOAEL (Oncorhynchus mykiss; duration: 10 months, F, development)?
The LOAEL was 140 mg/kg.

What about the LEL (Oryctolagus sp.; subchronic, duration: 8 weeks, oral, gavage, M, New Zealand, clinical chemistry) of the same compound?
Its LEL is 4 mg/kg-day.

And the LOAEL (Ovis sp.; subchronic, duration: 30 days, capsule, gross pathology)?
The LOAEL was 3 mg/kg-day.

And the NOAEL (Sus scrofa)?
The NOAEL was 3 mg/kg-day.

For `CC[C@@]1([C@@H]2O[C@@H]([C@H]3O[C@@](O)(CO)[C@H](C)C[C@@H]3C)C[C@@H]2C)CC[C@H]([C@]2(C)CC[C@]3(C[C@H](O)[C@@H](C)[C@@H]([C@@H](C)[C@@H](OC)[C@H](C)C(=O)[O-])O3)O2)O1.[Na+]` [Monensin sodium], which NOEL (Anas platyrhynchos; short-term, duration: 8 days, oral, feed, body weight) is on record?
The NOEL was 62 mg/kg.

What about the LEL (Bovidae; chronic, duration: 160 days, M/F) of the same compound?
The LEL was 110 mg/kg-day.

What about the LEL (Bovidae; short-term, duration: 28 days, M/F) of the same compound?
Its LEL is 4.5 mg/kg-day.

And the NOEL (Canidae; repeat dose other, clinical signs)?
Its NOEL is 0.345 mg/kg-day.

And the LD50 (Equus caballus)?
Its LD50 is 1.38 mg/kg.

What about the LEL (Gallus gallus; subchronic, M/F, no effects) of the same compound?
The LEL was 125 mg/kg-day.

What about the NOEC (Lolium perenne) of the same compound?
Its NOEC is 2 mg/kg.

And the LEL (Meleagris sp.; subchronic, duration: 84 days, oral, feed, M/F)?
The LEL was 100 mg/kg.

And the NOEL (Mus musculus; chronic, duration: 2 years, M/F, B6C3F1, body weight)?
The NOEL was 1.2 mg/kg-day.

And the LC50 (Oncorhynchus mykiss)?
Its LC50 is 1.88 µg/mL.

What about the NOEC (Oncorhynchus mykiss; duration: 50 days, development) of the same compound?
Its NOEC is 50 µg/L.

What about the NOAEL (Oryctolagus sp.; reproduction developmental) of the same compound?
The NOAEL was 0.3 mg/kg-day.

And the NOEL (Oryctolagus sp.; reproduction developmental, duration: 23 days, oral, gavage, F, body weight)?
The NOEL was 0.3 mg/kg-day.

And the NOEC (Tagia sp.; reproduction)?
Its NOEC is 50 mg/kg.

How did the LC50 (Danio rerio) turn out when `O=C1O[C@H]([C@@H](O)CO)C(O)=C1O` [L-Ascorbic acid] was run?
Its LC50 is 32 µg/mL (≈ 182 µM).

What about the LC50 (Oncorhynchus mykiss) of the same compound?
The LC50 was 1020 µg/mL (≈ 5790 µM).

Which NOEC (Anas platyrhynchos; reproductive) does the source give for `ClC=CCCl` [1,3-Dichloropropene] here?
The NOEC was 36 mg/kg-day.

And the LD50 (Anas platyrhynchos; short-term, oral, feed, mortality)?
The LD50 was 1080 mg/kg-day.

And the NOEC (Bibionidae; other)?
Its NOEC is 0.369 mg/L.

What about the LD50 (Colinus virginianus) of the same compound?
Its LD50 is 92 mg/kg-day.

And the LC50 (Cyprinodon variegatus; mortality)?
Its LC50 is 0.87 µg/mL (≈ 7.84 µM).

What about the NOEC (Pimephales promelas) of the same compound?
Its NOEC is 0.0069 mg/L.

What about the LD50 (Rattus norvegicus; oral) of the same compound?
The LD50 was 130 mg/kg-day.

What about the NOAEL (Rattus norvegicus; chronic, duration: 2 years, oral, diet, histopathology: neoplastic) of the same compound?
The NOAEL was 2.5 mg/kg-day.

Which NOEC (Bibionidae) does the source give for `CCOP(=O)(NC(C)C)Oc1ccc(SC)c(C)c1` (stereo not given) [Fenamiphos] here?
The NOEC was 0.00131 mg/L.

What about the NOAEL (Canidae; acute, neurology) of the same compound?
The NOAEL was 0.25 mg/kg-day.

And the NOAEL (Canidae; chronic, duration: 1 years, neurology)?
Its NOAEL is 0.083 mg/kg-day.

And the LC50 (Cyprinodon variegatus)?
The LC50 was 0.017 µg/mL (≈ 0.056 µM).

And the NOEC (Daphnia magna)?
The NOEC was 0.12 µg/L.

What about the LC50 (Lepomis macrochirus) of the same compound?
Its LC50 is 0.0093 µg/mL (≈ 0.0307 µM).

And the NOEC (Oncorhynchus mykiss; duration: 91 days)?
The NOEC was 3.8 µg/L.

What about the LD50 (Rattus norvegicus) of the same compound?
The LD50 was 6 mg/kg-day.

`O=C([O-])CC[C@@H](C(=O)[O-])N(CC(=O)[O-])CC(=O)[O-].[Na+].[Na+].[Na+].[Na+]` [Tetrasodium glutamate diacetate] was tested. Which LEL (Gallus gallus; subchronic, M, Chicken, body weight) did it give?
Its LEL is 10000 mg/kg-day.

And the NOEC (Macromiidae)?
Its NOEC is 1 mg/L.

What about the NOAEL (Oryctolagus sp.; reproduction developmental, duration: 21 days, oral, gavage, F, New Zealand, clinical signs) of the same compound?
Its NOAEL is 20 mg/kg-day.

And the NOEC (Pontoscolex corethrurus)?
Its NOEC is 248 mg/kg.

For `ClC1=C(Cl)[C@]2(Cl)[C@@H]3[C@H]4C[C@H]([C@@H]5O[C@H]45)[C@@H]3[C@@]1(Cl)C2(Cl)Cl` [Endrin], which NOAEL (Anas platyrhynchos; subchronic, duration: 12 weeks, oral, feed, M/F, mortality) is on record?
Its NOAEL is 0.5 mg/kg.

What about the LEL (Bovidae; chronic, duration: 112 days) of the same compound?
Its LEL is 5 mg/kg-day.

And the NOAEL (Canidae; chronic, duration: 18 months, diet, organ weight)?
The NOAEL was 1 mg/kg-day.

And the LOAEL (Coturnix coturnix)?
The LOAEL was 0.5 mg/kg-day.

What about the NOAEL (Gallus gallus; subchronic, duration: 50 days, mortality) of the same compound?
The NOAEL was 1 mg/kg-day.

And the LOAEL (Oncorhynchus mykiss; duration: 163 days, clinical chemistry)?
The LOAEL was 4.3 µg/kg-day.

What about the LEL (Ovis sp.; chronic, duration: 112 days, diet, no effects) of the same compound?
The LEL was 5 mg/kg-day.

For `CC(C)C1(C)N=C(c2nc3ccccc3cc2C(=O)O)NC1=O` (stereo not given) [Imazaquin], which NOEC (Bibionidae; other) is on record?
The NOEC was 228 mg/kg.

And the NOAEL (Canidae; chronic, duration: 1 years, clinical signs)?
Its NOAEL is 25 mg/kg-day.

And the NOEC (Colinus virginianus; reproduction developmental)?
Its NOEC is 16.6 mg/kg-day.

What about the NOEC (Daphnia magna; reproduction) of the same compound?
The NOEC was 100000 µg/L.

What about the NOEC (Oncorhynchus mykiss; duration: 28 days, growth) of the same compound?
The NOEC was 51200 µg/L.

What about the NOAEL (Oryctolagus sp.; reproduction developmental, mortality) of the same compound?
The NOAEL was 250 mg/kg-day.

What about the NOEC (Tagia sp.) of the same compound?
Its NOEC is 0.0275 mg/kg.

And the LR50 (Typhlodromus pyri)?
Its LR50 is > 4 g/ha.

`O=[N+]([O-])c1ccc([As](=O)(O)O)cc1` [Nitarsone] was tested. Which LEL (Canidae; subchronic, duration: 90 days, diet, no effects) did it give?
The LEL was 37.5 mg/kg-day.

And the LEL (Meleagris sp.; not reported)?
The LEL was 750 mg/kg.

And the NOEL (Rattus norvegicus; chronic, duration: 2 years, oral, diet, M/F, Long-Evans, histopathology: nonneoplastic)?
Its NOEL is 2 mg/kg-day.

For `Oc1cccc2cccnc12` [8-Hydroxyquinoline], which LD50 (Apis mellifera) is on record?
The LD50 was > 68.6 µg/piece.

What about the LD50 (Colinus virginianus; diet) of the same compound?
Its LD50 is > 1070 mg/kg-day.

And the LD50 (Colinus virginianus)?
The LD50 was 311 mg/kg.

And the LD50 (Mus musculus; acute, oral, mortality)?
Its LD50 is 177 mg/kg.

What about the LC50 (Oncorhynchus mykiss) of the same compound?
The LC50 was 2 µg/mL (≈ 13.8 µM).

What about the NOAEL (Oryctolagus sp.; developmental, development) of the same compound?
The NOAEL was 5 mg/kg-day.

And the NOAEL (Rattus norvegicus; chronic, duration: 2 years, body weight)?
Its NOAEL is 73.3 mg/kg-day.

What about the NOAEL (Rattus norvegicus; subchronic, duration: 90 days, oral, hematological) of the same compound?
Its NOAEL is 97.7 mg/kg-day.

What about the LC50 (Tagia sp.; acute, mortality) of the same compound?
Its LC50 is > 409 mg/kg.
